From US9708336B2, “Metallo-beta-lactamase inhibitors” (priority 2014, dated 2017)
Where two headings read alike, the source gives them in different places.

Key:
VIM-1 = VIM-1 (Pseudomonas aeruginosa (strain ATCC 15692 / DSM 22644 / CIP 104116 / JCM 14847 / LMG 12228 / 1C / PRS 101 / PAO1), UniProt A0A0F7KYQ8); test: Enzyme activity: determination of IC50, fluorescence assay with CCF2-FA substrate (VIM-1); type: biochemical
IMP-1 = IMP-1 (Serratia marcescens, UniProt P52699); test: biochemical; type: biochemical; conditions: read-out: IMP-1 IC50
NDM-1 = NDM-1 (Klebsiella pneumoniae, UniProt C7C422); test: biochemical; type: biochemical; conditions: read-out: NDM-1 IC50
[1] = system: Klebsiella pneumoniae expressing VIM-1 (IHMA599644); test: Antibiotic potentiation activity: synergistic concentration (MITC95) with imipenem, OD600 growth; type: cell-based; conditions: for Klebsiella pneumoniae expressing VIM-1 (IHMA 599644) MITC95: concentration giving 95% inhibition of bacterial growth; for Klebsiella pneumoniae MITC95: Klebsiella pneumoniae expressing VIM-1 (IHMA599644), 95% growth inhibition
Method in brief: (§1)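 Compound activity is tested with and without imipenem, which is present at 4 μg/ml (or 1 μg/ml) in the well. Bacteria in 1.1× CAMHB are incubated 22–24 h at 35 °C; absorbance gives the growth endpoint.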

[2] = system: Escherichia coli expressing NDM-1 (CLB30005); test: as above; type: cell-based; conditions: for Escherichia coli expressing NDM-1 (CLB 30005) MITC95: concentration giving 95% inhibition of bacterial growth; for Escherichia coli MITC95: Escherichia coli expressing NDM-1 (CLB30005), 95% growth inhibition
Method in brief: as §1

[3] = system: Serratia marcescens expressing IMP-1 (CL5741); test: as above; type: cell-based; conditions: for Serratia marcescens expressing IMP-1 (CL5741) MITC95: concentration giving 95% inhibition of bacterial growth; for Serratia marcescens MITC95: Serratia marcescens expressing IMP-1 (CL5741), 95% growth inhibition
Method in brief: as §1

[4] = fluorescence assay with CCF2-FA substrate, read-out: VIM-1 IC50
[5] = fluorescence assay with CCF2-FA substrate
[6] = VIM-1 enzyme, CCF2-FA fluorescence assay, read-out: VIM-1 IC50
[7] = IMP-1 enzyme, CCF2-FA fluorescence assay
[8] = NDM-1 enzyme, CCF2-FA fluorescence assay

Sequence of NDM-1 (C7C422 whole entry, looked up, species assumed): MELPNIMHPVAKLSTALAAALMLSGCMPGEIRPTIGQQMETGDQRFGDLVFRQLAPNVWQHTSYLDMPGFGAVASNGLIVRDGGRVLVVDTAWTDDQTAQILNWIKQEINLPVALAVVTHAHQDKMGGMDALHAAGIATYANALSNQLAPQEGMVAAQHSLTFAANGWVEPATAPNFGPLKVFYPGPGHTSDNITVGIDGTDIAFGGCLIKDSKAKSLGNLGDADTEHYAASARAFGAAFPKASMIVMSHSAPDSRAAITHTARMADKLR
Sequence of IMP-1 (P52699 whole entry, looked up): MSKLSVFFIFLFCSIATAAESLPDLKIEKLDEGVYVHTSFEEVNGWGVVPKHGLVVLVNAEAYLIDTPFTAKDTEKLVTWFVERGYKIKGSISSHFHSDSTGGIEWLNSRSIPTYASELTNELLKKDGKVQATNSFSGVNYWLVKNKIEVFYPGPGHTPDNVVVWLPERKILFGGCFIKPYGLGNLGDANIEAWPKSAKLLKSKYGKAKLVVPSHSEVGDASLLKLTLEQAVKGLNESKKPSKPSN

SMILES | IC50 (VIM-1; [4]) [nM] | IC50 (IMP-1; [5]) [nM] | IC50 (NDM-1; [5]) [nM] | Klebsiella pneumoniae expressing VIM-1 (IHMA 599644) MITC95 [1] [µM] | Escherichia coli expressing NDM-1 (CLB 30005) MITC95 [2] [µM] | Serratia marcescens expressing IMP-1 (CL5741) MITC95 [3] [µM] | IC50 (VIM-1; [6]) [nM] | IC50 (IMP-1; [7]) [nM] | IC50 (NDM-1; [8]) [nM] | Klebsiella pneumoniae MITC95 [1] [µM] | Escherichia coli MITC95 [2] [µM] | Serratia marcescens MITC95 [3] [µM] | IC50 (VIM-1; VIM-1 IC50, fluorescence assay with CCF2-FA substrate) [nM]
CNC(=O)c1ccc(-c2cccc(S(N)(=O)=O)c2-c2nn[nH]n2)cc1 [Example 13, N-methyl-3′-sulfamoyl-2′-(2H-tetrazol-5-yl)biphenyl-4-carboxamide] | 226 | 173 | 5.47 | 200 | 1.563 | 200 |  |  |  |  |  |  | 
COc1cccc(-c2cccc(S(N)(=O)=O)c2-c2nn[nH]n2)n1 [Example 37, 3-(6-methoxypyridin-2-yl)-2-(2H-tetrazol-5-yl)benzenesulfonamide] | 206 | 1210 | 26.4 | 200 | 2.344 | 50 |  |  |  |  |  |  | 
NS(=O)(=O)c1cccc(-c2ccnc(F)c2)c1-c1nn[nH]n1 [Example 46, 3-(2-fluoropyridin-4-yl)-2-(2H-tetrazol-5-yl)benzenesulfonamide] | 99.1 | 302 | 14.5 | 28.13 | 0.5859 | 25 |  |  |  |  |  |  | 
CS(=O)(=O)Nc1cccc(-c2cccc(S(N)(=O)=O)c2-c2nn[nH]n2)c1 [Example 86, 3′-[(methylsulfonyl)amino]-2-(2H-tetrazol-5-yl)biphenyl-3-sulfonamide] | 1070 | 67.4 | 11 | 200 | 0.7813 | 3.125 |  |  |  |  |  |  | 
CN(c1ncc(-c2cccc(S(N)(=O)=O)c2-c2nn[nH]n2)cn1)S(C)(=O)=O [Example 55, 3-{2-[methyl(methylsulfonyl)amino]pyrimidin-5-yl}-2-(2H-tetrazol-5-yl)benzenesulfonamide] | 144 | 52.7 | 3.48 | 200 | 1.953 | 12.5 |  |  |  |  |  |  | 
CCCc1ccc(-c2cccc(S(N)(=O)=O)c2-c2nnn[nH]2)cn1 [Example 302, 3-(6-propylpyridin-3-yl)-2-(1H-tetrazol-5-yl)benzenesulfonamide] |  |  |  |  |  |  | 38.5 | 110 | 5.85 | 150 | 0.3906 | 3.906 | 
NS(=O)(=O)c1nccc(-c2ccc3c(c2)CNC3=O)c1-c1nnn[nH]1 [Example 196, 4-(1-oxoisoindolin-5-yl)-3-(1H-tetrazol-5-yl)pyridine-2-sulfonamide] | 50.3 | 1590 | 45.6 | 25 | 1.953 | 125 |  |  |  |  |  |  | 
Cc1ccc(-c2cc(-c3cccnc3)cc(S(N)(=O)=O)c2-c2nn[nH]n2)cc1 [Example 293, 4′-methyl-5-(pyridin-3-yl)-2-(2H-tetrazol-5-yl)-[1,1′-biphenyl]-3-sulfonamide] |  |  |  |  |  |  | 232 | 86.5 | 1.02 | >200 | 1.953 | 9.375 | 
CS(=O)(=O)c1ccc(-c2cccc(S(N)(=O)=O)c2-c2nn[nH]n2)cc1 [Example 16, 4′-(methylsulfonyl)-2-(2H-tetrazol-5-yl)biphenyl-3-sulfonamide] |  | 85.5 | 10.5 | 75 | 1.172 | 25 |  |  |  |  |  |  | 67.1
NS(=O)(=O)c1nccc(-c2ccc3c(c2)CNC3=O)c1-c1nnn[nH]1 [Example 192, 4-(1-oxoisoindolin-5-yl)-3-(1H-tetrazol-5-yl)pyridine-2-sulfonamide] | 98.1 | 439 | 36.4 | 50 | 1.953 | 50 |  |  |  |  |  |  | 
